Assay results reported in ChEMBL document CHEMBL2176892, “Conjugation of quinones with natural polyamines: toward an expanded antitrypanosomatid profile” (J Med Chem, 2012).
Calls of active or inactive are those of the source. The rule behind the calls is not given here.

What was measured:
L6 = assay: Cytotoxicity against rat L6 cells assessed as growth inhibition after 72 hrs by inverted microscopy; assay type: cell-based; details: L6, 72 h
Leishmania donovani [1] = assay: Reduction in mitochondrial electrochemical potential in promastigote form of Leishmania donovani MHOM/ET/67/L82 assessed as reduction in Rhodamine 123 fluorescence at 25 uM after 4 hrs by flow cytometry; assay type: functional, organism-based
Leishmania donovani [2] = assay: Antitrypanosomal activity against axenic amastigote form of Leishmania donovani MHOM-ET-67/L82 assessed as growth inhibition after 72 hrs by inverted microscopy; assay type: functional, organism-based; details: MHOM-ET-67/L82, 72 h
Leishmania donovani [3] = assay: Induction of morphological damage in promastigote form of Leishmania donovani MHOM/ET/67/L82 assessed as accumulation of vesicular material inside the flagellar pocket at 5 uM after 4 hrs by transmission electron microscopy; assay type: functional, organism-based
Trypanosoma cruzi = assay: Antitrypanosomal activity against intracellular amastigote form of Trypanosoma cruzi Tulahuen C2C4 infected in rat L6 cells assessed as growth inhibition after 92 hrs by inverted microscopy; assay type: functional, organism-based; details: Tulahuen C2C4, L6, 92 h
Trypanothione reductase [4] = biological target: T1, Trypanothione reductase (Trypanosoma brucei brucei, UniProt P39051); assay: Mixed type inhibition of Trypanosoma brucei TR using varying levels of trypanothione disulfide assessed as inhibition constant for enzyme-inhibitor complex by Lineweaver-Burk plot
T1 sequence (P39051 whole entry): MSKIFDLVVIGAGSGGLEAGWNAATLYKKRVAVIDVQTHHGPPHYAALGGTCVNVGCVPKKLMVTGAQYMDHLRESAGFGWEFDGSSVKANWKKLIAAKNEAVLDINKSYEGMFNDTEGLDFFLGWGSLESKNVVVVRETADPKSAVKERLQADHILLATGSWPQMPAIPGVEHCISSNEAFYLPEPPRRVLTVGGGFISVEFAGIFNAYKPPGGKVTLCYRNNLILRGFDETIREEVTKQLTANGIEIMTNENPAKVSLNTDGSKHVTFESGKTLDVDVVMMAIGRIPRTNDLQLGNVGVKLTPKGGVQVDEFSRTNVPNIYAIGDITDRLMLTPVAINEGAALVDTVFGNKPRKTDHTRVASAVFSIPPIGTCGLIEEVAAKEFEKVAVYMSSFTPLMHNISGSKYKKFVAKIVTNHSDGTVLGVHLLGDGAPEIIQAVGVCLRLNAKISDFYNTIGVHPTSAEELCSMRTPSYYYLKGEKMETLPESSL

[5] = Selectivity index, ratio of IC50 for rat L6 cells to IC50 for promastigote form of Leishmania donovani strain MHOM/SD/00/1S-2D; assay type: toxicity, cell-based; details: read-out: Ratio IC50
[6] = Selectivity index, ratio of IC50 for rat L6 cells to IC50 for trypomastigote form of Trypanosoma brucei rhodesiense strain STIB 900; assay type: toxicity, cell-based; details: read-out: Ratio IC50
[7] = test system: Trypanosoma brucei rhodesiense; assay: Antitrypanosomal activity against trypomastigote form of Trypanosoma brucei rhodesiense STIB 900 assessed as growth inhibition after 72 hrs by microplate fluorometry; assay type: functional, organism-based; details: STIB 900, 72 h
[8] = Selectivity index, ratio of IC50 for rat L6 cells to IC50 for axenic amastigote form of Leishmania donovani strain MHOM-ET-67/L82; assay type: toxicity, cell-based; details: read-out: Ratio IC50
Trypanothione reductase [9] = biological target: T1, Trypanothione reductase; assay: Noncompetitive inhibition of Trypanosoma brucei TR using varying levels of trypanothione disulfide by Lineweaver-Burk plot
Leishmania donovani [10] = assay: Reduction in free cytoplasmic ATP level in promastigote form of Leishmania donovani 3-Luc at 2.5 to 25 uM after 15 to 20 mins by luminescence assay; assay type: functional, organism-based
Trypanothione reductase [11] = biological target: T1, Trypanothione reductase; assay: Mixed type inhibition of Trypanosoma brucei TR using varying levels of trypanothione disulfide assessed as inhibition constant for enzyme-substrate-inhibitor complex by Lineweaver-Burk plot
[12] = biological target: Trypanothione reductase (Trypanosoma brucei brucei) (UniProt P39051); assay: Inhibition of Trypanosoma brucei TR using 40 to 100 uM trypanothione disulfide assessed as remaining activity at 5 uM
Trypanothione reductase (Trypanosoma brucei brucei), sequence (P39051 whole entry, looked up): as the sequence (P39051 whole entry) above

Leishmania donovani [13] = assay: Antitrypanosomal activity against promastigote form of Leishmania donovani MHOM/SD/00/1S-2D assessed as growth inhibition after 72 hrs by inverted microscopy; assay type: functional, organism-based
[14] = biological target: Trypanothione reductase (Trypanosoma brucei brucei) (UniProt P39051); assay: Induction of intrinsic oxidase activity of Trypanosoma brucei TR at 5 uM
[15] = Selectivity index, ratio of IC50 for rat L6 cells to IC50 for intracellular amastigote form of Trypanosoma cruzi Tulahuen strain C2C4; assay type: toxicity, cell-based; details: read-out: Ratio IC50
Leishmania donovani [16] = assay: Induction of morphological damage in promastigote form of Leishmania donovani MHOM/ET/67/L82 assessed as mitochondrial swelling at 5 uM after 4 hrs by transmission electron microscopy; assay type: functional, organism-based

Row | SMILES | IC50 (Trypanosoma cruzi) [µM] | Ki (Trypanothione reductase [4]) [µM] | IC50 [7] [µM] | Ki (Trypanothione reductase [9]) [µM] | Ki (Trypanothione reductase [11]) [µM] | Activity [12] [%] | Activity [14] | IC50 (L6) [µM] | Activity (Leishmania donovani [1]) | IC50 (Leishmania donovani [2]) [µM] | Activity (Leishmania donovani [3]) | selectivity ratio [5] | selectivity ratio [6] | selectivity ratio [8] | Activity (Leishmania donovani [10]) | IC50 (Leishmania donovani [13]) [µM] | selectivity ratio [15] | Activity (Leishmania donovani [16])
1 | O=C(Cn1ccnc1[N+](=O)[O-])NCc1ccccc1 [BENZNIDAZOLE] |  |  |  |  |  |  |  | > 384 |  |  |  |  |  |  |  |  |  | 
2 | O=C1C=C(Oc2ccccc2)C(=O)c2cc3ccccc3cc21 | 4.66 |  |  |  |  | 51 |  |  | Active |  |  | 0.35 | 19.8 | 2.91 | Dose-dependent effect | 2.81 | 0.21 | Active
3 | NCCCNCCCCNCc1ccc(OC2=CC(=O)c3cc4ccccc4cc3C2=O)cc1 | 39.4 |  | 0.23 |  |  | 36 | inactive | 6.29 |  | 3.13 |  | 0.41 | 27.4 | 2.01 |  | 15.4 | 0.16 | 
4 | CCCCCCCCCCCCCCCCOP(=O)([O-])OCC[N+](C)(C)C [MILTEFOSINE] |  |  |  |  |  |  |  | 143 |  |  |  |  |  | 462 |  |  |  | 
5 | NCCCNCCCCNCCCNCc1ccc(OC2=CC(=O)c3ccccc3C2=O)cc1 | 24.1 |  | 0.45 |  |  | 36 | Active | 7.05 |  | 5.79 |  | < 0.23 | 15.7 | 1.22 |  | > 30 | 0.29 | 
6 | Nc1nc(N)nc(Nc2ccc([As]3SCC(CO)S3)cc2)n1 (stereo unspecified) [MELARSOPROL] |  |  |  |  |  |  |  | 18.3 |  |  |  |  | 1830 |  |  |  |  | 
7 | COc1cc([C@@H]2c3cc4c(cc3[C@H](O)[C@H]3COC(=O)[C@H]23)OCO4)cc(OC)c1OC [PODOFILOX] |  |  |  |  |  |  |  | 0.0017 |  |  |  |  |  |  |  |  |  | 

Continued, in another order:

Row | IC50 (Trypanosoma cruzi) [µM] | Ki (Trypanothione reductase [4]) [µM] | IC50 [7] [µM] | Ki (Trypanothione reductase [9]) [µM] | Ki (Trypanothione reductase [11]) [µM] | Activity [12] [%] | Activity [14] | SMILES | IC50 (L6) [µM] | Activity (Leishmania donovani [1]) | IC50 (Leishmania donovani [2]) [µM] | Activity (Leishmania donovani [3]) | selectivity ratio [5] | selectivity ratio [6] | selectivity ratio [8] | Activity (Leishmania donovani [10]) | IC50 (Leishmania donovani [13]) [µM] | selectivity ratio [15] | Activity (Leishmania donovani [16])
8 | 17.4 | 3.4 | 0.07 | 3.4 | 3.9 | 36 | inactive | NCCCCCNCc1ccc(OC2=CC(=O)c3cc4ccccc4cc3C2=O)cc1 | 5.04 | Active | 2.44 | Active | 1.39 | 72 | 2.06 | Dose-dependent effect | 3.62 | 0.29 | 
9 | 30 |  | 0.22 |  |  |  |  | NCCCCNCc1ccc(OC2=CC(=O)c3ccccc3C2=O)cc1 | 11.1 |  | 6.81 |  | 1.27 | 50.5 | 1.63 |  | 8.72 | 0.37 | 
10 | 34.8 |  | 0.32 |  |  |  |  | NCCCNCCCCNCCCNCc1ccc(OC2=CC(=O)c3cc4ccccc4cc3C2=O)cc1 | 7.21 |  | 3.35 |  | 0.45 | 22.5 | 2.15 |  | 16.1 | 0.21 | 
11 | 18.8 |  | 0.46 |  |  |  |  | NCCCNCCCNCCCNCc1ccc(OC2=CC(=O)c3ccccc3C2=O)cc1 | 6.46 |  | 7.27 |  | < 0.21 | 14 | 0.89 |  | > 30 | 0.34 | 
12 | 1.26 |  |  |  |  | 51 |  | O=C1C=C(Oc2ccccc2)C(=O)c2ccccc21 |  |  |  |  | 8 | 74 | 4.7 |  | 0.74 | 4.7 | 
13 | 20 | 2.8 | 0.26 |  | 4.6 | 36 | Active | NCCCCCNCc1ccc(OC2=CC(=O)c3ccccc3C2=O)cc1 | 9.1 |  | 6.63 |  | 1.18 | 35 | 1.37 |  | 7.72 | 0.45 | 
14 | 17.4 |  | 0.24 |  |  |  |  | NCCCNCCCNCCCNCc1ccc(OC2=CC(=O)c3cc4ccccc4cc3C2=O)cc1 | 4.87 |  | 2.4 |  | 0.53 | 20.3 | 2.03 |  | 9.08 | 0.29 | 
15 | 18.6 |  | 0.35 |  |  | 36 | inactive | NCCCCNCc1ccc(OC2=CC(=O)c3cc4ccccc4cc3C2=O)cc1 | 5.6 |  | 2.82 |  | 1.56 | 16 | 1.98 |  | 3.59 | 0.3 | 
16 | 52.2 |  | 0.72 |  |  |  |  | NCCCNCCCCNCc1ccc(OC2=CC(=O)c3ccccc3C2=O)cc1 | 9.18 |  | 7.17 |  | < 0.31 | 12.8 | 1.28 |  | > 30 | 0.18 | 
